Results reported in patent US12241902B2, “Probes for detection of copper” (The Regents of the University of California, priority 2019, dated 2025).

Assays:
[1] = Ratiometric fluorescence response (F526/F576) to Cu(I) in aqueous buffer
Protocol: (§1) UV-vis absorption and emission measurements. FCP-1 stock solution in DMSO (5 mM) was prepared, aliquoted and stored at […]. For each spectroscopic measurement, a fresh aliquot was diluted to 500 μM by DMSO and further diluted with PBS containing 2 mM GSH/PEG-400 mixture (3:2, v/v) to prepare the sensing solution with 5 μM of FCP-1. The sensing solution was pre-incubated in a water bath at 37° C., and then [Cu(CH3CN)](PF6) in MeCN or other metal ions in H2O was added. The solution mixture was kept at 37° C. and taken out for UV-vis absorption or emission spectroscopic measurements in quartz cuvette at predetermined time intervals. Emission spectra were corrected using coumarin 153 as secondary emission standard (4). Photoluminescence quantum yield (PLQY) was determined using fluorescein in 0.1 M NaOH solution (0.95; λex=496 nm). FRET efficiency from the fluorescein moiety to rhodamine moiety of FCP-1 was estimated by [1−(PLQY of FCP-1/PLQY of FL-TPA)].
The ratiometric fluorescence change of FCP-1 at 526 and 576 nm (F526/F576) was rapid and reached saturation after ca. 30 min in the presence of a two-fold excess of Cu(I) (10 μM).

[2] = Metal ion selectivity of the ratiometric fluorescence change
Protocol: (§2) (A) Changes in corrected emission spectra of FCP-1 (5 μM) in aqueous buffer solution. […] (B) Corrected emission spectra of FCP-1 measured at various concentrations. […] (D) Changes in F526/F576 ratio of FCP-1 (5 μM) towards various biologically relevant metal ions, as well as cobalt(II)-containing vitamin B12. Black bars represent the ratiometric emission response observed upon addition of competing metal ions (1 mM for Na^+, K^+, Mg^2+ and Ca^2+, and 10 μM for all the other d-block metal ions as well vitamin B12) after 15 min. Red bars represent the ratiometric emission response upon subsequent addition of 10 μM of Cu(I) after 15 min. (E) Emission spectra and (F) F526/F576 emission ratio of FCP-1 (5 μM) with addition of Cu(II) (10 μM), Cu(II) (10 μM)+GSH (2 mM), or Cu(I) (10 μM)+GSH (2 mM) after 15 min. All spectra were acquired in aqueous buffer (PBS with 2 mM GSH and 40 vol % PEG-400) with λex=458 nm.
as §1
This oxidation state-specificity is important for the applications of FCP-1 in imaging dynamic changes in intracellular labile Cu(I) pools under redox stress and oncogenic transformation.

[3] = Oxidation state specificity of the ratiometric response
Protocol: as §2
UV-vis absorption and emission measurements. FCP-1 stock solution in DMSO (5 mM) was prepared, aliquoted and stored at […]. For each spectroscopic measurement, a fresh aliquot was diluted to 500 μM by DMSO and further diluted with PBS containing 2 mM GSH/PEG-400 mixture (3:2, v/v) to prepare the sensing solution with 5 μM of FCP-1. […] Photoluminescence quantum yield (PLQY) was determined using fluorescein in 0.1 M NaOH solution (0.95; λex=496 nm). […]

[4] = test system: labile Cu(I) in Ctr1^−/− MEFs; experiment: Confocal fluorescence imaging of labile Cu(I) in Ctr1-/- MEFs; format: cell-based, mouse
Protocol: (A) Confocal fluorescence microscopy images of Ctr1^+/+ MEFs and Ctr1^−/− MEFs treated with solvent control, CuCl2 (100 or 300 μM) or BCS (500 μM) in complete medium for 8 h, washed with complete medium and PBS, incubated with FCP-1 (5 μM) in DPBS for 45 min, and then imaged with λex=458 nm. (B) Average cellular ratiometric emission ratios of FCP-1, Fgreen/Forange, as determined from experiments performed in triplicate. (C) Total cellular ^63Cu levels were determined by ICP-MS experiments (with normalization of different cell numbers by total cellular ^31P level). (D) Confocal fluorescence microscopy images of Ctr1^+/+ MEFs and Ctr1^−/− MEFs incubated with FL-TPA (5 μM) in DPBS for 45 min. The cells were then imaged with λex=488 nm. (E) Average cellular fluorescence intensity of FL-TPA, FFL-TPA, determined from experiments performed in triplicate with λex=488 nm. Error bars denote SD (n=3). *p<0.05, **p<0.01 and ***p<0.001.
Cell culture. Following cell cultures were grown: Human embryonic kidney (HEK 293T) cells were maintained in Dulbecco's Modified Eagle Medium (DMEM) supplemented with 10 vol % fetal bovine serum (FBS), 1 vol % GlutaMax (Gibco) and 1 vol % non-essential amino acids (NEAA, Gibco). Ctrl1^+/+ and Ctr1^−/− MEF cells were maintained in DMEM with 10 vol % FBS, 1 vol % non-essential amino acids, 1 vol % sodium pyruvate and 0.1 vol % 2-mercaptoethanol or DMEM supplemented with 10 vol % FBS and 1× Penicillin-Streptomycin. Human cervical epithelial carcinoma (HeLa) was maintained in DMEM medium supplemented with 1 vol % GlutaMAX and 10 vol % FBS. […]
Confocal fluorescence microscopy imaging. For confocal fluorescence imaging experiments of HEK293T, MEF Ctr1^+/+ and Ctr1^−/− and HeLa cells, the cells were plated on 8-well Lab Tek borosilicate chambered coverglass slides (Nunc), and allowed to grow to ca. 60% confluency before performing the cell imaging experiments. […] For quantification, a threshold value was set as background and the average intensity of the whole image was measured by ImageJ. […]

[5] = FCP-1 5 μM, Cu(I) 10 μM, over time, λex 458 nm

SMILES: CC[N+](CC)=c1ccc2c(-c3ccccc3C(=O)O)c3ccc(N4CCN(Cc5cccc(CN(Cc6ccccn6)Cc6cccc(COc7ccc8c(-c9ccccc9C(=O)OC)c9ccc(=O)cc-9oc8c7)n6)n5)CC4)cc3oc-2c1 [FCP-1]
- F526/F576 ratio with Cu(I) at different GSH concentrations ([1]; FCP-1 5 μM, Cu(I) 10 μM, 15 min, PBS with 40 vol % PEG-400): higher F526/F576 ratios at lower GSH concentrations
- fluorescein emission at 526 nm upon addition of Cu(I) [1, 5]: increase in fluorescein emission at 526 nm
- rhodamine fluorescence at 576 nm upon addition of Cu(I) [1, 5]: drop in rhodamine fluorescence at 576 nm
- total fluorescence at higher probe concentrations ([1]; aqueous buffer, λex 458 nm (FIG. 8)): less fluorescent at higher concentrations
- time to saturation of ratiometric fluorescence change F526/F576 ([1]; two-fold excess of Cu(I) (10 μM)): ca. 30 min
- change in ratiometric signal with cobalamin (vitamin B12) ([2]; 10 μM cobalamin): no significant changes in ratiometric signal
- selectivity of ratiometric fluorescence change ([2]; 1 mM Na+, K+, Mg2+, Ca2+, 10 μM d-block metal ions, 15 min): selective toward Cu(I) over other biologically relevant metal ions
- change of fluorescence with free Co(II) ([2]; Co(II) 10 μM): altered FCP-1 fluorescence modestly
- detection of Cu(I) in competitive experiments ([2]; solutions containing other biologically relevant metal ions, then 10 μM Cu(I)): ability of FCP-1 to detect Cu(I)
- emission spectra and F526/F576 ratio with Cu(II) and excess glutathione ([3]; Cu(II) 10 μM + GSH 2 mM, compared with Cu(I) 10 μM + GSH 2 mM): identical to that obtained by treating FCP-1 with Cu(I) and excess glutathione
- ratiometric response to Cu(II) ([3]; Cu(II) 10 μM, 15 min): does not respond ratiometrically
- cellular viability by nuclear stain DRAQ5 ([4]; Ctr1−/− MEFs (FIG. 14)): cellular viability was maintained
- Fgreen/Forange ratio after CuCl2 ([4]; Ctr1−/− MEFs incubated with CuCl2): no statistically significant changes
- Fgreen/Forange ratio after BCS ([4]; Ctr1−/− MEFs, BCS (500 μM)): reduction in Fgreen/Forange ratio
